Data set [1] is described as follows: physical stability: conversion to a hydrated form during aqueous based processing (wet granulation). The following applies: during essential manufacturing processes / aqueous based processing steps, e.g. wet granulation; tris salt compared to free acid. In kind it is physicochemical.
Another data set can be described thus: solubility. In kind it is physicochemical. The following applies: tris salt compared to free acid.
The nature of another data set: absorption (Cmax, Tmax). In kind it is in vivo. The settings on record: tris salt compared to free acid.

Counter-ions that a name gives are not always drawn.

For `CCCCCn1c(=O)[nH]c(=O)c2[nH]c(Cl)nc21` [free acid, 8-chloro-3-pentyl-3,7-dihydro-1H-purine-2,6-dione], in data set [1], the “physical stability (remains in original form, no conversion by hydration)” value was “readily convert to a hydrated form”.

Consider `CCCCCn1c(=O)[nH]c(=O)c2[nH]c(Cl)nc21` [tris salt, 8-chloro-3-pentyl-3,7-dihydro-1H-purine-2,6-dione trishydroxymethylaminomethane], for which the “physical stability (remains in original form, no conversion by hydration)” value in data set [1] is reported as “enhanced physical stability”. In addition, the solubility result in the data set “solubility” is recorded as “higher solubility than the free acid”. Besides, the Cmax entry in the data set “absorption (Cmax, Tmax)” was “increased”. The Tmax result in “absorption (Cmax, Tmax)” (indicates faster absorption) was “decreased”.

For the origin of these results see patent US9163024B2, “Tris salts of 8-chloro-3-pentyl-3,7-dihydro-1H-purine-2,6-dione” (GlaxoSmithKline LLC, priority 2008, dated 2015).
